ChEMBL document CHEMBL3046496, “Hydrolysis and Phytotoxic Activity ofN-Aryl-3,4,5,6-tetrahydroisophthalimides” (Biosci Biotechnol Biochem, 1993)

Legend:
Type in all cases: ADME, organism-based
[1] = Drug hydrolysis in culture medium of Echinochloa esculenta assessed as compound degradation measured at zero period in culture experiment by HPLC method; conditions: read-out: Drug degradation
Scenedesmus acutus = assay: Phytotoxic activity against Scenedesmus acutus assessed as protoporphyrin-IX accumulation at 1 uM incubated for 1 hr; conditions: in vivo
[2] = Half life in culture medium of Echinochloa esculenta after 7 days by HPLC method

## O=C1O/C(=N\c2ccc(Cl)cc2)C2=C1CCCC2
[1]
  degraded: 10%
Scenedesmus acutus
  Activity: 54.7 nmol/mL
[2]
  half-life: 1150 min

## C#CCOc1cc(/N=C2\OC(=O)C3=C2CCCC3)c(F)cc1Cl
[1]
  degraded: 32%
[2]
  half-life: 864 min

## O=C1O/C(=N\c2ccc(Cl)cc2F)C2=C1CCCC2
[1]
  degraded: 68%

## Cc1cc(Cl)ccc1/N=C1\OC(=O)C2=C1CCCC2
[1]
  degraded: 33%
[2]
  half-life: 432 min

## O=C(O)C1=C(C(=O)Nc2ccc(Cl)cc2)CCCC1
Scenedesmus acutus
  Activity: 17.6 nmol/mL

## O=C1C2=C(CCCC2)C(=O)N1c1ccc(Cl)cc1 [CHLOROPHTHALIUM]
Scenedesmus acutus
  Activity: 68.2 nmol/mL

## O=C1O/C(=N\c2ccc(OCc3ccc(Cl)cc3)cc2)C2=C1CCCC2
[1]
  degraded: 5%
[2]
  half-life: 3460 min
